Laboratory results published in US20240166652A1, “MODULATORS OF THE INTEGRATED STRESS PATHWAY” (Calico Life Sciences LLC, priority 2017, published 2024).

test system: ATF4 luciferase reporter in HEK293T cells; test: ATF4-Luc assay (ATF4 luciferase reporter, tunicamycin-treated HEK293T cells); format: cell-based, human; conditions: Homo sapiens, HEK-293T; HEK293T cells carrying the ATF4 luciferase reporter, 1 μg/mL tunicamycin, 7 hours

First: O=C(CCCOc1cccc(Cl)c1)NC12CC(NC(=O)COc3ccc(Cl)c(Cl)c3)(C1)C2 [Compound 168, 4-(3-chlorophenoxy)-N-{3-[2-(3,4-dichlorophenoxy)acetamido]-bicyclo[1.1.1]pentan-1-yl}butanamide]
Second: O=C(CCOc1cccc(Cl)c1)NC12CC(NC(=O)COc3ccc(Cl)c(Cl)c3)(C1)C2 [Compound 169, 3-(3-chlorophenoxy)-N-{3-[2-(3,4-dichlorophenoxy)acetamido]bicyclo-[1.1.1]pentan-1-yl}propanamide]
The EC50 of the first is lower: 50 to 250 nM for the first, 250 to 500 nM for the second. The first is the more potent here.

First: CN(C)c1cccc(CCOCC(=O)NC23CC(NC(=O)COc4ccc(Cl)c(Cl)c4)(C2)C3)c1 [Compound 170, 2-(3,4-dichlorophenoxy)-N-[3-(2-{2-[3-(dimethylamino)phenyl]ethoxy}-acetamido)bicyclo[1.1.1]pentan-1-yl]acetamide]
Second: O=C(COc1ccc(Cl)c(Cl)c1)NC12CC(NC(=O)OCCc3cccc(Cl)c3)(C1)C2 [Compound 173, 2-(3-chlorophenyl)ethyl {3-[2-(3,4-dichlorophenoxy)acetamido]-bicyclo[1.1.1]pentan-1-yl}carbamate]
The EC50 of the first is higher: over 2000 nM for the first, 50 to 250 nM for the second.

Compared with `O=C(COc1cccc(Cl)c1)NC12CC(NC(=O)COc3ccc(Cl)c(Cl)c3)(C1)C2` [Compound 171, 2-(3-chlorophenoxy)-N-{3-[2-(3,4-dichlorophenoxy)acetamido]-bicyclo[1.1.1]pentan-1-yl}acetamide], `O=C(COc1ccc(Cl)c(Cl)c1)NC12CC(NC(=O)OCc3cccc(Cl)c3)(C1)C2` [Compound 172, (3-chlorophenyl)methyl {3-[2-(3,4-dichlorophenoxy)acetamido]-bicyclo[1.1.1]pentan-1-yl}carbamate] is higher in EC50: under 10 nM for the first, 250 to 500 nM for the second. The first is the more potent here.

Compared with `O=C(COc1ccc(Cl)c(Cl)c1)NC12CC(NC(=O)OCCCc3cccc(Cl)c3)(C1)C2` [Compound 174, 3-(3-chlorophenyl)propyl {3-[2-(3,4-dichlorophenoxy)acetamido]-bicyclo[1.1.1]pentan-1-yl}carbamate], `O=C(COc1ccc(Cl)c(Cl)c1)NC12CCC(NC(=O)OCc3ccccc3)(C1)C2` [Compound 193, benzyl {4-[2-(3,4-dichlorophenoxy)acetamido]bicyclo[2.1.1]hexan-1-yl}carbamate] is higher in EC50: 250 to 500 nM for the first, over 2000 nM for the second.

Compared with `O=C(COc1ccc(Cl)cc1)NC12CCC(NC(=O)COc3ccc(Cl)cc3)(C1)C2` [Compound 176, N,N′-(bicyclo[2.1.1]hexane-1,4-diyl)bis[2-(4-chlorophenoxy)acetamide]], `O=C(COc1ccc(Cl)cc1)NC12CCCC(NC(=O)COc3ccc(Cl)cc3)(C1)C2` [Compound 178, N,N′-(bicyclo[3.1.1]heptane-1,5-diyl)bis[2-(4-chlorophenoxy)acetamide]] is higher in EC50: 10 to 50 nM for the first, over 2000 nM for the second. The first is the more potent here.

Going from `O=C(COc1ccc(Cl)c(F)c1)NC12CCC(NC(=O)COc3ccc(Cl)c(F)c3)(C1)C2` [Compound 177, N,N′-(bicyclo[2.1.1]hexane-1,4-diyl)bis[2-(4-chloro-3-fluorophenoxy)acetamide]] to `O=C(COc1ccc(Cl)c(F)c1)NC12CCCC(NC(=O)COc3ccc(Cl)c(F)c3)(C1)C2` [Compound 179, N,N′-(bicyclo[3.1.1]heptane-1,5-diyl)bis[2-(4-chloro-3-fluorophenoxy)acetamide]], the EC50 rises from under 10 nM to over 2000 nM.

Compared with `O=C(COc1ccc(Cl)c(F)c1)NC12CCC(NC(=O)OCc3ccccc3)(C1)C2` [Compound 180, benzyl {4-[2-(4-chloro-3-fluorophenoxy)acetamido]bicyclo[2.1.1]hexan-1-yl}carbamate], `O=C(COc1ccc(Cl)c(F)c1)NC12CCCC(NC(=O)OCc3ccccc3)(C1)C2` [Compound 181, benzyl {5-[2-(4-chloro-3-fluorophenoxy)acetamido]bicyclo[3.1.1]heptan-1-yl}carbamate] is higher in EC50: 50 to 250 nM for the first, over 2000 nM for the second.

First: O=C(COc1ccc(Cl)c(F)c1)NC12CC(NC(=O)COc3ccn4nccc4n3)(C1)C2 [Compound 182, 2-(4-chloro-3-fluorophenoxy)-N-(3-{2-[(pyrazolo[1,5-a]pyrimidin-5-yl)oxy]acetamido}bicyclo[1.1.1]pentan-1-yl)acetamide]
Second: O=C(COc1ccc(F)c(F)c1)NC12CC(NC(=O)COc3ccc(Cl)c(F)c3)(C1)C2 [Compound 183, 2-(4-chloro-3-fluorophenoxy)-N-{3-[2-(3,4-difluorophenoxy)acetamido]-bicyclo[1.1.1]pentan-1-yl}acetamide]
The EC50 of the first is higher: over 2000 nM for the first, under 10 nM for the second. The second is the more potent here.

First: Cc1n[nH]c2cc(OCC(=O)NC34CC(NC(=O)COc5ccc(Cl)c(F)c5)(C3)C4)ccc12 [Compound 184, 2-(4-chloro-3-fluorophenoxy)-N-(3-{2-[(3-methyl-1H-indazol-6-yl)oxy]acetamido}bicyclo[1.1.1]pentan-1-yl)acetamide]
Second: O=C(COc1ccc(Cl)c(F)c1)NC12CC(NC(=O)COc3ccc(Cl)c(F)c3)(C1)C2 [Compound 186, N,N′-(bicyclo[1.1.1]pentane-1,3-diyl)bis[2-(4-chloro-3-fluorophenoxy)acetamide]]
The EC50 of the first is higher: 50 to 250 nM for the first, under 10 nM for the second. The second is the more potent here.

Compared with `O=C(COc1ccc(F)c(F)c1)NC12CC(NC(=O)COc3ccc(F)c(F)c3)(C1)C2` [Compound 185, N,N′-(bicyclo[1.1.1]pentane-1,3-diyl)bis[2-(3,4-difluorophenoxy)acetamide]], `O=C(COc1ccc(Cl)c(F)c1)NC12CCC(NC(=O)COc3ccc4cn[nH]c4c3)(C1)C2` [Compound 187, 2-(4-chloro-3-fluorophenoxy)-N-(4-{2-[(1H-indazol-6-yl)oxy]acetamido}bicyclo[2.1.1]hexan-1-yl)acetamide] is higher in EC50: 10 to 50 nM for the first, 50 to 250 nM for the second. The first is the more potent here.

Compared with `O=C(COc1ccc(C(F)(F)F)nc1)NC12CCC(NC(=O)COc3ccc(Cl)c(F)c3)(C1)C2` [Compound 188, 2-(4-chloro-3-fluorophenoxy)-N-[4-(2-{[6-(trifluoromethyl)pyridin-3-yl]oxy}acetamido)bicyclo[2.1.1]hexan-1-yl]acetamide], `O=C(COc1ccc(C(F)(F)F)nc1)NC12CCC(NC(=O)COc3ccc(Cl)c(Cl)c3)(C1)C2` [Compound 196, 2-(3,4-dichlorophenoxy)-N-[4-(2-{[6-(trifluoromethyl)pyridin-3-yl]oxy}acetamido)bicyclo[2.1.1]hexan-1-yl]acetamide] is lower in EC50: 50 to 250 nM for the first, 10 to 50 nM for the second. The second is the more potent here.

`CC(C)(C)[Si](C)(C)OCCN(C(=O)COc1ccc(Cl)c(F)c1)C12CC(NC(=O)COc3ccc(Cl)c(F)c3)(C1)C2` [Compound 189, N-(2-{[tert-butyl(dimethyl)silyl]oxy}ethyl)-2-(4-chloro-3-fluorophenoxy)-N-{3-[2-(4-chloro-3-fluorophenoxy)acetamido]bicyclo[1.1.1]pentan-1-yl}acetamide] and `O=C(COc1ccc(Cl)c(F)c1)NC12CC(N(CCO)C(=O)COc3ccc(Cl)c(F)c3)(C1)C2` [Compound 190, 2-(4-chloro-3-fluorophenoxy)-N-{3-[2-(4-chloro-3-fluorophenoxy)acetamido]-bicyclo[1.1.1]pentan-1-yl}-N-(2-hydroxyethyl)acetamide] fall in the same range of EC50: 500 to 2000 nM for the first, 500 to 2000 nM for the second.

Compared with `O=C(COc1ccc(Cl)c(F)c1)NC12CC(N(CCO)C(=O)COc3ccc(C(F)(F)F)nc3)(C1)C2` [Compound 191, N-{3-[2-(4-chloro-3-fluorophenoxy)acetamido]bicyclo[1.1.1]pentan-1-yl}-N-(2-hydroxyethyl)-2-{[6-(trifluoromethyl)pyridin-3-yl]oxy}acetamide], `CN(C(=O)COc1ccc(Cl)c(Cl)c1)C12CC(NC(=O)COc3ccc(F)c(Cl)c3)(C1)C2` [Compound 197, N-{3-[2-(3-chloro-4-fluorophenoxy)acetamido]bicyclo[1.1.1]pentan-1-yl}-2-(3,4-dichlorophenoxy)-N-methylacetamide] is lower in EC50: 500 to 2000 nM for the first, 50 to 250 nM for the second. The second is the more potent here.

Compared with `O=C(COc1ccc(Cl)c(F)c1)NC12CC(NC(=O)OCc3ccccc3)(C1)C2` [Compound 192, benzyl {3-[2-(4-chloro-3-fluorophenoxy)acetamido]bicyclo[1.1.1]pentan-1-yl}carbamate], `O=C(COc1ccc(Cl)c(Cl)c1)NC12CCCC(NC(=O)OCc3ccccc3)(C1)C2` [Compound 194, benzyl {5-[2-(3,4-dichlorophenoxy)acetamido]bicyclo[3.1.1]heptan-1-yl}carbamate] is higher in EC50: 500 to 2000 nM for the first, over 2000 nM for the second.

First: O=C(COc1ccc(Cl)c(Cl)c1)NC12CCC(NC(=O)COc3cc(F)c4cn[nH]c4c3)(C1)C2 [Compound 195, 2-(3,4-dichlorophenoxy)-N-(4-{2-[(4-fluoro-1H-indazol-6-yl)oxy]acetamido}-bicyclo[2.1.1]hexan-1-yl)acetamide]
Second: CN(CC(=O)NC12CCC(NC(=O)COc3ccc(Cl)c(Cl)c3)(C1)C2)c1ccc(Cl)cc1 [Compound 202, N^2-(4-chlorophenyl)-N-{4-[2-(3,4-dichlorophenoxy)acetamido]-bicyclo[2.1.1]hexan-1-yl}-N^2-methylglycinamide]
The EC50 of the first is lower: 10 to 50 nM for the first, over 2000 nM for the second.

`CN(C(=O)COc1ccc(Cl)c(Cl)c1)C12CC(NC(=O)COc3ccc(Cl)c(Cl)c3)(C1)C2` [Compound 198, 2-(3,4-dichlorophenoxy)-N-{3-[2-(3,4-dichlorophenoxy)acetamido]-bicyclo[1.1.1]pentan-1-yl}-N-methylacetamide] and `CN(C(=O)COc1ccc(Cl)c(Cl)c1)C12CC(NC(=O)COc3ccc(Cl)cc3)(C1)C2` [Compound 199, N-{3-[2-(4-chlorophenoxy)acetamido]bicyclo[1.1.1]pentan-1-yl}-2-(3,4-dichlorophenoxy)-N-methylacetamide] fall in the same range of EC50: 50 to 250 nM for the first, 50 to 250 nM for the second.

First: CN(CC(=O)NC12CC(NC(=O)COc3ccc(Cl)c(Cl)c3)(C1)C2)c1ccc(Cl)cc1 [Compound 200, N^2-(4-chlorophenyl)-N-{3-[2-(3,4-dichlorophenoxy)acetamido]-bicyclo[1.1.1]pentan-1-yl}-N^2-methylglycinamide]
Second: CN(CC(=O)NC12CC(NC(=O)COc3ccc(Cl)c(F)c3)(C1)C2)c1ccc(Cl)cc1 [Compound 201, N-{3-[2-(4-chloro-3-fluorophenoxy)acetamido]bicyclo[1.1.1]pentan-1-yl}-N^2-(4-chlorophenyl)-N^2-methylglycinamide]
The EC50 of the first is higher: over 2000 nM for the first, 500 to 2000 nM for the second.

Work on `O=C(CNc1ccc(Cl)cc1)NC12CC(NC(=O)COc3ccc(Cl)c(F)c3)(C1)C2` [Compound 203, N-{3-[2-(4-chloro-3-fluorophenoxy)acetamido]bicyclo[1.1.1]pentan-1-yl}-N^2-(4-chlorophenyl)glycinamide] yielded an EC50 of 50 to 250 nM.
